Data as given in ChEMBL document CHEMBL5303304, “EUbOPEN Chemogenomics Library - IncuCyte” (2023).

What was measured:
Format in all cases: toxicity, cell-based
HEK-293T = assay: Incucyte cell viability with HEK293T; conditions: human, 10 µM, compound concentration 10 uM
Fibroblast = assay: Incucyte cell viability with human fibroblast; conditions: 10 µM, compound concentration 10 uM
U2OS = assay: Incucyte cell viability with U2OS; conditions: human, 10 µM, compound concentration 10 uM
Further: unitless GR value; below 1 slowed growth and below 0 cell loss.

| Structure (SMILES) | Growth Rate (HEK-293T; 6 h, replicate number 1) | Growth Rate (HEK-293T; 6 h, replicate number 2) | Growth Rate (HEK-293T; 12 h, replicate number 1) | Growth Rate (HEK-293T; 12 h, replicate number 2) | Growth Rate (HEK-293T; 18 h, replicate number 1) | Growth Rate (HEK-293T; 18 h, replicate number 2) | Growth Rate (HEK-293T; 24 h, replicate number 1) | Growth Rate (HEK-293T; 24 h, replicate number 2) | Growth Rate (Fibroblast; 6 h, replicate number 1) | Growth Rate (Fibroblast; 12 h, replicate number 1) | Growth Rate (Fibroblast; 12 h, replicate number 2) | Growth Rate (Fibroblast; 18 h, replicate number 1) | Growth Rate (Fibroblast; 24 h, replicate number 1) | Growth Rate (U2OS; 0 h, replicate number 2) | Growth Rate (U2OS; 6 h, replicate number 1) | Growth Rate (U2OS; 12 h, replicate number 1) | Growth Rate (U2OS; 12 h, replicate number 2) | Growth Rate (U2OS; 24 h, replicate number 1) | Growth Rate (Fibroblast; 18 h, replicate number 2) | Growth Rate (U2OS; 0 h, replicate number 1) | also measured |
| --- | --- | --- | --- | --- | --- | --- | --- | --- | --- | --- | --- | --- | --- | --- | --- | --- | --- | --- | --- | --- | --- |
| Cn1nc(-c2ccc(C(N)=O)cc2)c2ccccc2c1=O | 0.11 | 0.45 | 0.75 | 0.4 | 0.73 | 0.55 | 0.79 | 0.74 | 0.25 | 0.99 | 0.65 | 0.84 | 1 | 0.98 | 0.58 | 0.8 | 0.97 | 0.96 | – | – | Growth Rate (U2OS; 18 h, replicate number 1): 0.93 |
| Cc1cc(=O)oc2cc(NC(=O)[C@H](Cc3ccc(I)cc3)NC(=O)[C@H]3N[C@@H]4CC[C@H]3C4)ccc12.O=C(O)C(F)(F)F | -0.02 | – | 0.55 | – | 0.61 | – | 0.76 | – | – | – | 0.19 | – | – | – | 0.26 | 0.89 | – | 0.88 | 0.35 | -0.48 | Growth Rate (Fibroblast; 0 h, replicate number 1): -1; Growth Rate (Fibroblast; 6 h, replicate number 2): -0.13; Growth Rate (Fibroblast; 24 h, replicate number 2): 0.61; Growth Rate (U2OS; 18 h, replicate number 1): 0.97; Growth Rate (U2OS; 18 h, replicate number 2): 0.92; Growth Rate (U2OS; 24 h, replicate number 2): 0.85 |
| O=C(Nc1cccc(C(F)(F)F)c1)c1cccc(-n2cc(-c3ccco3)nn2)c1 | 0.68 | 0.56 | 0.8 | 1 | 0.67 | – | 0.76 | – | 0.82 | – | – | – | 0.97 | 0.15 | 0.72 | 0.78 | 0.81 | 0.9 | – | – | Growth Rate (Fibroblast; 0 h, replicate number 2): -0.94; Growth Rate (U2OS; 18 h, replicate number 2): 0.95 |
| CCOC(=O)/N=C(\N)c1ccc(OCc2cccc(COc3ccc(C(C)(C)c4ccc(OC(=O)OCC)cc4)cc3)c2)cc1 | -0.49 | -0.42 | 0.04 | -0.1 | 0.49 | 0.08 | 0.77 | 0.11 | 0.42 | 0.73 | 0.87 | 0.66 | 0.41 | – | 0.84 | – | – | – | 0.76 | – | Growth Rate (Fibroblast; 0 h, replicate number 1): -0.98; Growth Rate (Fibroblast; 6 h, replicate number 2): -0.28; Growth Rate (Fibroblast; 24 h, replicate number 2): 0.79 |
| CN1C(=O)Cc2ccc(-c3ccc(C[C@@H](C#N)NC(=O)[C@@H]4N[C@H]5CC[C@@H]4C5)c(F)c3)cc21 | 0.06 | 0.52 | 0.07 | 0.61 | 0.19 | 0.73 | 0.28 | 0.82 | 0.38 | 0.46 | 0.99 | 0.42 | 0.61 | – | 0.89 | – | – | – | – | 0.98 | – |
| CCN1C(=O)/C(=C(\NC2CCN(C)CC2)c2ccc3c(c2)OCO3)c2cc(C(C)=O)ccc21 | 0.44 | 0.16 | 0.64 | 0.78 | 0.63 | 0.77 | 0.71 | – | 0.42 | 0.32 | 0.27 | 0.7 | 0.64 | -0.34 | 0.59 | – | 0.81 | 0.89 | 0.5 | 0.46 | Growth Rate (Fibroblast; 0 h, replicate number 1): -1; Growth Rate (Fibroblast; 6 h, replicate number 2): 0.53; Growth Rate (Fibroblast; 24 h, replicate number 2): 0.76; Growth Rate (U2OS; 6 h, replicate number 2): 0.61; Growth Rate (U2OS; 24 h, replicate number 2): 0.95 |
| O=C(N[C@H](Cc1ccccc1)C(=O)O)c1cccc(OCc2cccnc2)c1.O=CO | 0.73 | – | – | – | 1 | – | – | – | 0.68 | 0.47 | 0.7 | 0.93 | 0.88 | 0.39 | 0.69 | 0.66 | 0.77 | 0.8 | 0.81 | 0.75 | Growth Rate (U2OS; 6 h, replicate number 2): 0.67; Growth Rate (U2OS; 18 h, replicate number 2): 0.98; Growth Rate (U2OS; 24 h, replicate number 2): 0.86 |
